This assay has as its target PD-1/PD-L1 (Homo sapiens, UniProt Q9NZQ7). Nature of the assay: TR-FRET PD-1/PD-L1 binding inhibition at the molecular level (free proteins). As to conditions: Tag1-PD-L1 and Tag2-PD-1 proteins, twelve concentrations from 200 nM, 2 hours at room temperature, read-out: FRET assay (IC50). Here is the method:
In order to evaluate the inhibitory activity of the compounds synthesized according to the above Preparation Examples against PD-1/PD-L1 molecules in a free protein state,a TR-FRET (Time-Resolved Fluorescence Energy Transfer) experimetn was performed as described below.
Specifically, the compounds were prepared in a 96-well plate by serial dilution starting from 200 nM with 1/2 dilutions to obtain a total of twelve concentrations, and 2 µL of each compound solution was added to a 384-well plate. Thereafter, Tag1-PD-L1 protein and Tag2-PD-1 protein were each prepared at a 1x concentration, mixed at a ratio of 1:1, and 8 µL of the mixed solution was added to each well of the 384-well plate containing the compounds. Anti-Tag1 Eu Cryptate reagent and Anti-Tag2 XL665 antibody were each prepared at a 1* concentration, mixed at a ratio of 1:1, and 10 µL of the mixed solution was added to each well of the 384-well plate containing the compounds and proteins, followed by incubation at room temperature for 2 hours. Upon completion of the reaction, fluorescence signals at wavelengths of 620 nm and 665 nm were measured using a microplate reader.

This note sets out measurements from patent EP4755888A1 (ILAb Co., Ltd., priority 2023, dated 2025).

In general, IC50 refers to the concentration that inhibits the measured activity by half.

Chain of PD-1/PD-L1 (Q9NZQ7 19-238 limits assumed): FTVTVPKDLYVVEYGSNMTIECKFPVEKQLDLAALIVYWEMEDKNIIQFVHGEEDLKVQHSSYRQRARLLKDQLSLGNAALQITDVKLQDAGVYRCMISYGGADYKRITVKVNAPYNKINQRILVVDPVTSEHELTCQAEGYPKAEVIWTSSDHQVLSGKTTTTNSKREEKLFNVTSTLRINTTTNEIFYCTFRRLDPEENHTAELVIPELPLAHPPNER

With `O=C(Nc1cccc(-c2cccc(Nc3nccc4cc(CN5CC[C@@H](O)C5)cnc34)c2Cl)c1Cl)c1cc2n(n1)CCCC2N1CC[C@@H](O)C1` (stereo partly drawn) [Compound 25, N-(2,2'-dichloro-3'-((3-(((R)-3-hydroxypyrrolidin-1-yl)methyl)-1,7-naphthyridin-8-yl)amino)-[1,1'-biphenyl]-3-yl)-4-((R)-3-hydroxypyrrolidin-1-yl)-4,5,6,7-tetrahydropyrazolo[1,5-a]pyridine-2-carboxamide], the IC50 is 10 to 100 nM.
Regarding `O=C(O)CNC1CCCn2nc(C(=O)Nc3cccc(-c4cccc(Nc5nccc6cc(CN7CC[C@@H](O)C7)cnc56)c4Cl)c3Cl)cc21` (stereo partly drawn) [Compound 26, 2-((2-((2,2'-dichloro-3'-((3-(((R)-3-hydroxypyrrolidin-1-yl)methyl)-1,7-naphthyridin-8-yl)amino)-[1,1'-biphenyl]-3-yl)carbamoyl)-4,5,6,7-tetrahydropyrazolo[1,5-a]pyridin-4-yl)amino)acetic acid], the IC50 is under 10 nM.
On to `CC(C)(NC1CCCn2nc(C(=O)Nc3cccc(-c4cccc(Nc5nccc6cc(CN7CC[C@@H](O)C7)cnc56)c4Cl)c3Cl)cc21)C(=O)O` (stereo partly drawn) [Compound 27, 2-((2-((2,2'-dichloro-3'-((3-(((R)-3-hydroxypyrrolidin-1-yl)methyl)-1,7-naphthyridin-8-yl)amino)-[1,1'-biphenyl]-3-yl)carbamoyl)-4,5,6,7-tetrahydropyrazolo[1,5-a]pyridin-4-yl)amino)-2-methylpropanoic acid], for which the IC50 was in the range of 10 to 100 nM.
Consider `Cc1c(Nc2nccc3cc(CN4CC[C@@H](O)C4)cnc23)cccc1-c1cccc(NC(=O)c2cc3n(n2)CCCC3NCCO)c1Cl` (stereo partly drawn) [Compound 28, N-(2-chloro-3'-((3-(((R)-3-hydroxypyrrolidin-1-yl)methyl)-1,7-naphthyridin-8-yl)amino)-2'-methyl-[1,1'-biphenyl]-3-yl)-4-((2-hydroxyethyl)amino)-4,5,6,7-tetrahydropyrazolo[1,5-a]pyridine-2-carboxamide], for which the IC50 was under 10 nM.
In the case of `Cc1c(Nc2nccc3cc(CN4CC[C@@H](O)C4)cnc23)cccc1-c1cccc(NC(=O)c2cc3n(n2)CCCC3N2CC[C@@H](O)C2)c1Cl` (stereo partly drawn) [Compound 29, N-(2-chloro-3'-((3-(((R)-3-hydroxypyrrolidin-1-yl)methyl)-1,7-naphthyridin-8-yl)amino)-2'-methyl-[1,1'-biphenyl]-3-yl)-4-((R)-3-hydroxypyrrolidin-1-yl)-4,5,6,7-tetrahydropyrazolo[1,5-a]pyridine-2-carboxamide], the IC50 is under 10 nM.
Take `CC(=O)NCCNC1CCCn2nc(C(=O)Nc3cccc(-c4cccc(Nc5nccc6cc(CN7CC[C@@H](O)C7)cnc56)c4C)c3Cl)cc21` (stereo partly drawn) [Compound 30, 4-((2-acetamidoethyl)amino)-N-(2-chloro-3'-((3-(((R)-3-hydroxypyrrolidin-1-yl)methyl)-1,7-naphthyridin-8-yl)amino)-2'-methyl-[1,1'-biphenyl]-3-yl)-4,5,6,7-tetrahydropyrazolo[1,5-a]pyridine-2-carboxamide]: the IC50 is under 10 nM.
As for `Cc1c(Nc2nccc3cc(CN4CC[C@@H](O)C4)cnc23)cccc1-c1cccc(NC(=O)c2cc3n(n2)CCCC3NC[C@@H]2CCC(=O)N2)c1Cl` (stereo partly drawn) [Compound 31, N-(2-chloro-3'-((3-(((R)-3-hydroxypyrrolidin-1-yl)methyl)-1,7-naphthyridin-8-yl)amino)-2'-methyl-[1,1'-biphenyl]-3-yl)-4-((((S)-5-oxopyrrolidin-2-yl)methyl)amino)-4,5,6,7-tetrahydropyrazolo[1,5-a]pyridine-2-carboxamide], the IC50 is under 10 nM.
Regarding `Cc1c(Nc2nccc3cc(CN4CC[C@@H](O)C4)cnc23)cccc1-c1cccc(NC(=O)c2cc3n(n2)CCCC3NCC(=O)O)c1Cl` (stereo partly drawn) [Compound 32, 2-((2-((2-chloro-3'-((3-(((R)-3-hydroxypyrrolidin-1-yl)methyl)-1,7-naphthyridin-8-yl)amino)-2'-methyl-[1,1'-biphenyl]-3-yl)carbamoyl)-4,5,6,7-tetrahydropyrazolo[1,5-a]pyridin-4-yl)amino)acetic acid], the IC50 is under 10 nM.
As for `Cc1c(Nc2nccc3cc(CN4CC[C@@H](O)C4)cnc23)cccc1-c1cccc(NC(=O)c2cc3n(n2)CCCC3N2CC[C@@H](C(=O)O)C2)c1Cl` (stereo partly drawn) [Compound 33, (3R)-1-(2-((2-chloro-3'-((3-(((R)-3-hydroxypyrrolidin-1-yl)methyl)-1,7-naphthyridin-8-yl)amino)-2'-methyl-[1,1'-biphenyl]-3-yl)carbamoyl)-4,5,6,7-tetrahydropyrazolo[1,5-a]pyridin-4-yl)pyrrolidine-3-carboxylic acid], the IC50 was under 10 nM.
Consider `Cc1c(Nc2nccc3cc(CN4CC[C@@H](O)C4)cnc23)cccc1-c1cccc(NC(=O)c2cc3n(n2)CCCC3N2CCC(O)CC2)c1Cl` (stereo partly drawn) [Compound 34, N-(2-chloro-3'-((3-(((R)-3-hydroxypyrrolidin-1-yl)methyl)-1,7-naphthyridin-8-yl)amino)-2'-methyl-[1,1'-biphenyl]-3-yl)-4-(4-hydroxypiperidin-1-yl)-4,5,6,7-tetrahydropyrazolo[1,5-a]pyridine-2-carboxamide], for which the IC50 lay in the range of 10 to 100 nM.
For the compound `Cc1c(Nc2nccc3cc(CN4CC[C@@H](O)C4)cnc23)cccc1-c1cccc(NC(=O)c2cc3n(n2)CCCC3N2CCC(C(=O)O)CC2)c1Cl` (stereo partly drawn) [Compound 35, 1-(2-((2-chloro-3'-((3-(((R)-3-hydroxypyrrolidin-1-yl)methyl)-1,7-naphthyridin-8-yl)amino)-2'-methyl-[1,1'-biphenyl]-3-yl)carbamoyl)-4,5,6,7-tetrahydropyrazolo[1,5-a]pyridin-4-yl)piperidine-4-carboxylic acid], the IC50 was under 10 nM.
Then `Cc1c(Nc2nccc3cc(CN4CC[C@@H](O)C4)cnc23)cccc1-c1cccc(NC(=O)c2cc3n(n2)CCCC3O)c1Cl` (stereo partly drawn) [Compound 36, N-(2-chloro-3'-((3-(((R)-3-hydroxypyrrolidin-1-yl)methyl)-1,7-naphthyridin-8-yl)amino)-2'-methyl-[1,1'-biphenyl]-3-yl)-4-hydroxy-4,5,6,7-tetrahydropyrazolo[1,5-a]pyridine-2-carboxamide], with 10 to 100 nM.
Then `Cc1c(NC(=O)c2cc3n(n2)CCCC3NCCO)cccc1-c1cccc(Nc2nccc3cc(CN4CC[C@@H](O)C4)cnc23)c1Cl` (stereo partly drawn) [Compound 37, N-(2'-chloro-3'-((3-(((R)-3-hydroxypyrrolidin-1-yl)methyl)-1,7-naphthyridin-8-yl)amino)-2-methyl-[1,1'-biphenyl]-3-yl)-4-((2-hydroxyethyl)amino)-4,5,6,7-tetrahydropyrazolo[1,5-a]pyridine-2-carboxamide], with under 10 nM; and `Cc1c(NC(=O)c2cc3n(n2)CCCC3N2CC[C@@H](O)C2)cccc1-c1cccc(Nc2nccc3cc(CN4CC[C@@H](O)C4)cnc23)c1Cl` (stereo partly drawn) [Compound 38, N-(2'-chloro-3'-((3-(((R)-3-hydroxypyrrolidin-1-yl)methyl)-1,7-naphthyridin-8-yl)amino)-2-methyl-[1,1'-biphenyl]-3-yl)-4-((R)-3-hydroxypyrrolidin-1-yl)-4,5,6,7-tetrahydropyrazolo[1,5-a]pyridine-2-carboxamide], with 10 to 100 nM.
Take `CC(=O)NCCNC1CCCn2nc(C(=O)Nc3cccc(-c4cccc(Nc5nccc6cc(CN7CC[C@@H](O)C7)cnc56)c4Cl)c3C)cc21` (stereo partly drawn) [Compound 39, 4-((2-acetamidoethyl)amino)-N-(2'-chloro-3'-((3-(((R)-3-hydroxypyrrolidin-1-yl)methyl)-1,7-naphthyridin-8-yl)amino)-2-methyl-[1,1'-biphenyl]-3-yl)-4,5,6,7-tetrahydropyrazolo[1,5-a]pyridine-2-carboxamide]: the IC50 is under 10 nM.
`Cc1c(NC(=O)c2cc3n(n2)CCCC3NC[C@@H]2CCC(=O)N2)cccc1-c1cccc(Nc2nccc3cc(CN4CC[C@@H](O)C4)cnc23)c1Cl` (stereo partly drawn) [Compound 40, N-(2'-chloro-3'-((3-(((R)-3-hydroxypyrrolidin-1-yl)methyl)-1,7-naphthyridin-8-yl)amino)-2-methyl-[1,1'-biphenyl]-3-yl)-4-((((S)-5-oxopyrrolidin-2-yl)methyl)amino)-4,5,6,7-tetrahydropyrazolo[1,5-a]pyridine-2-carboxamide]: the IC50 lay in the range of 10 to 100 nM.
Next, `Cc1c(NC(=O)c2cc3n(n2)CCCC3NCC(=O)O)cccc1-c1cccc(Nc2nccc3cc(CN4CC[C@@H](O)C4)cnc23)c1Cl` (stereo partly drawn) [Compound 41, 2-((2-((2'-chloro-3'-((3-(((R)-3-hydroxypyrrolidin-1-yl)methyl)-1,7-naphthyridin-8-yl)amino)-2-methyl-[1,1'-biphenyl]-3-yl)carbamoyl)-4,5,6,7-tetrahydropyrazolo[1,5-a]pyridin-4-yl)amino)acetic acid]: under 10 nM; `Cc1c(NC(=O)c2cc3n(n2)CCCC3N2CC[C@@H](C(=O)O)C2)cccc1-c1cccc(Nc2nccc3cc(CN4CC[C@@H](O)C4)cnc23)c1Cl` (stereo partly drawn) [Compound 42, (3R)-1-(2-((2'-chloro-3'-((3-(((R)-3-hydroxypyrrolidin-1-yl)methyl)-1,7-naphthyridin-8-yl)amino)-2-methyl-[1,1'-biphenyl]-3-yl)carbamoyl)-4,5,6,7-tetrahydropyrazolo[1,5-a]pyridin-4-yl)pyrrolidine-3-carboxylic acid]: under 10 nM.
